Reference: the SangsterLogP compilation

Assay: method code SF-HPLC, from DOI: 10.1248/cpb.43.2238

Row | logP | Structure (SMILES)
1 | 2.55 | Clc1ccsc1
2 | 1.68 | CCCNC(=O)c1cccs1
3 | 1.58 | O=[N+]([O-])c1cccs1
4 | 1.18 | CCNC(=O)c1cccs1
5 | 1.89 | c1ccsc1
6 | 2.13 | COc1cccs1

Second part, the compound before the results:

Row | Structure (SMILES) | logP
7 | N#Cc1cccs1 | 1.34
8 | CCCNC(=O)c1ccsc1 | 1.65
9 | CNC(=O)c1ccsc1 | 0.81
10 | COC(=O)c1cccs1 | 1.83
11 | CCNC(=O)c1ccsc1 | 1.18
12 | CCOC(=O)c1ccsc1 | 2.32
13 | CC(=O)c1cccs1 | 1.27
14 | CC(=O)c1ccsc1 | 1.26
15 | CNC(=O)c1cccs1 | 0.84
16 | CCCOC(=O)c1cccs1 | 3.01
17 | CCCOC(=O)c1ccsc1 | 3.03
